Where “and” joins values, the source holds several entries; their conditions need not be identical. Equal entries are not always repeated. Entries after “also recorded” stand apart in the source; their conditions may differ.
What was measured:
[1] = tested on: normal human primary epidermal keratinocytes; experiment: BrdU incorporation assay, exponentially growing keratinocytes; format: cell-based; settings: increasing EGCG or 0.2 mg/ml GTP
Source text: Analysis of DNA synthesis using the BrdU incorporation method. The BrdU cell proliferation kit was purchased from Oncogene Research Products (Boston, Mass.). […] Experiments were repeated three times in triplicate for each experiment.

[2] = cited from earlier work
[3] = tested on: MCF7 (C) cells; experiment: Morphological analysis, MCF7(C) cells; format: cell-based, human; settings: EGCG, 48 hours
Source text: Cell lines and cell culture. The normal human keratinocytes (NHEK CC-2507) were purchased from Cambrex (East Rutherford, N.J.) and maintained in KGM-2 medium (Cambrex). The OSC2 cell line was previously described (Osaki et al., Eur J Cancer B Oral Oncol 1994; 30 B:296-301). The breast carcinoma MCF7 cell line was purchased from American Type Culture Collection. The MCF7(C) caspase+cell line “7-3-28 ” was established and tested as previously described (Janicke et al., J Biol Chem 1998; 273:9357-60, Blanc et al., Cancer Res 2000; 60:4386-90). These tumor cells were maintained in 45% Dulbecco's Modified Eagle's Medium (DMEM), 45% Ham's F12 medium and 10% fetal calf serum, 100 I.U/ml penicillin, 100 μg/ml streptomycin and 5 μg/ml hydrocortisone. All cell cultures were maintained in a 37° C. incubator with 5% CO2. Light microscopic photographs were taken with a SPOT RT digital camera system (Diagnostic Instruments) linked to a Nikon Phase Contrast-2 microscope at an original magnification of 200×.

[4] = tested on: caspase 3; experiment: Caspase 3 activity assay, normal human epidermal keratinocytes; format: cell-based; settings: EGCG 0 to 200 μM or 0.2 mg/ml GTPPs, 24 h
Experimental: (§1) Caspase 3 activity assay. The Caspase 3 Apoptosis Detection Kit was purchased from Santa Cruz Biotech. Inc. In a 24 well tissue culture plate, 10^5 cells/well of control or treated cells in triplicates were plated. […] To each well, 100 μl of 2×reaction buffer was added with 10 mM DTT. Finally, 5 μl of DEVD-AFC substrate was added to each well containing cell lysates. The reaction mixtures were incubated for 1 hour at 37° C. The caspase 3 activity in each well was measured using a fluorescence plate reader set for 405 nanometer (nm) excitation and 505 nm emission.
as §1, with “of” for “of control or treated”, “[…]” for “10 mM”, “fluorescence microplate” for “fluorescence plate”, “405 nm” for “405 nanometer (nm)”
Caspase 3 activity assay. […] The reaction mixtures were incubated for 1 hour at 37° C., and caspase 3 activity in each well was measured using a fluorescence micro-plate reader at a wavelength of 405 nm for excitation and 505 nm for emission.

[5] = tested on: NHEK; experiment: Intracellular ROS levels (DFDA assay), NHEK; format: cell-based, human; settings: EGCG 15-200 μM, up to 120 minutes
Experimental: Measurement of intracellular ROS levels. The ROS assay measures the accumulation of intracellular ROS levels. The non-fluorescent dye DFDA passively diffuses into cells, where the acetates are cleaved by intracellular esterases. […] Thus, values of the fluorescence in the cell cultures are constantly rising in this assay. […] The intracellular ROS levels were measured by using a fluorescence plate reader (BIO-TEK FL600, Bio-Tek Instruments, Inc., Winooski, Vt.), at an excitation wavelength of 485 nm and an emission wavelength of 530 nm.

[6] = as stated in Example 9; read-out: Cmax in the plasma; cited from earlier work
[7] = tested on: caspase 3; experiment: Caspase 3 activity assay, mammary epithelial cells; format: cell-based, human; settings: 100 μM EGCG, 24 hours
Experimental: as §1

[8] = tested on: OSC-4 cells; experiment: BrdU incorporation assay, OSC-4 cells; format: cell-based, human; settings: for DNA synthesis (BrdU assay): 24 hours
Experimental: (§2) DNA synthesis assay. DNA synthesis was analyzed by a BrdU Cell Proliferation Assay Kit (Oncogene Research Products, Boston, Mass.). […] After the treatment, cells were labeled with BrdU for 2 hours at 37° C. and reacted with anti-BrdU antibody. Unbound antibody in each well was removed by rinsing, and horseradish peroxidase-conjugated goat anti-mouse antibody was added to each well. The color reaction was visualized according to the protocol provided by the manufacturer.
as §2, with “cell proliferation assay kit” for “Cell Proliferation Assay Kit”, “anti-mouse IgG” for “anti-mouse”, “reaction to visualize the secondary antibody” for “reaction”, “carried out” for “visualized”

[9] = tested on: OSC-4 cells; experiment: MTT assay (SDH activity), OSC-4 cells; format: cell-based, human; settings: 24 hours
Experimental: MTT [3-(4,5-dimethylthiazol-2-yl)-2,5-diphenyl tetrazolium bromide] assay. This method directly detects the activity of mitochondrial succinate dehydrogenase (SDH). Changes in SDH activity is a measurement of cell viability when stress is introduced in cell culture through chemical or physical means. Cells (1.5×10^4 cells/well) were seeded in a 96-well microplate and treated with the indicated doses of EGCG for 24 hours. After the treatment, the cells in each well were washed with 200 μl of phosphate-buffered saline (PBS), incubated with 100 μl of 2% MTT in a solution of 0.05 M Tris, 0.5 mM MgCl2, 2.5 mM CoCl2, and 0.25 M disodiumn succinate as substrate (Sigma) at 37° C. for 30 minutes. Cells were fixed in situ by the addition of 100 μl of 4% formalin in 0.2 M Tris (pH 7.7), and after a 5 minute incubation at room temperature liquid was removed and the wells were allowed to dry. Each well was rinsed with 200 μl water and cells were solubilized by the addition of 100 μl of 6.35% 0.1 N NaOH in DMSO. The colored formazan product was measured by a Thermo MAX micro plate reader (Molecular Devices Corp., Sunnyvale, Calif.) at a wavelength of 562 nm. Experiments were repeated three times with triplicate samples for each experiment.

SMILES: O=C(O[C@@H]1Cc2c(O)cc(O)cc2O[C@@H]1c1cc(O)c(O)c(O)c1)c1cc(O)c(O)c(O)c1 [EGCG, (−)-epigallocatechin-3-gallate]
- BrdU incorporation [1]: slight increase of BrdU incorporation
- EGCG secreted from human saliva ([2]; after two to three cups of green tea): ≤ 50 μM and ≤ 22.9 μg/ml
- absorption through the oral mucosa ([2]; humans): rapidly absorbed through the oral mucosa
- morphology [3]: significantly reduced the cell number and produced cell blebbing
- caspase 3 activity [4]: only exhibited basal levels of caspase 3 activities; also recorded: not significantly affected
- intracellular ROS levels [5]: significantly reduced immediately after the addition of EGCG; also recorded: reduce ROS to background levels
- Cmax [6]: 10 µM
- increase in caspase 3 activity compared to control [7]: 3 fold
- DNA synthesis (BrdU assay) ([8]; 50 μM EGCG): did not show significant changes
- BrdU incorporation, of control levels ([8]; 200 μM EGCG): approximately 75%
- reduction of BrdU incorporation ([8]; 200 μM EGCG, 24-hour period): approximately 25%
- DNA synthesis (BrdU assay) ([8]; 200 μM EGCG): significantly reduced SDH activity and DNA synthesis
- mitochondrial SDH activity ([9]; 50 μM EGCG): did not show significant changes
- SDH activity, of untreated control ([9]; 200 μM EGCG): less than 75%
- mitochondrial SDH activity ([9]; 200 μM EGCG): significantly reduced SDH activity and DNA synthesis

From patent US20040191842A1, “Chemopreventive and therapeutic aspects of polyphenolic compositions and assays” (Medical College of Georgia Research Institute, Inc., priority 2002, published 2004)
